According to the supplement of paper PMC10307832:

How the values were obtained:
Test in all cases: relative viability (nuclei count vs DMSO), 5 days (fraction); higher = more cells survive
[1] = compound: CC1=C(CC(=O)O)c2cc(F)ccc2/C1=C\c1ccc([S+](C)[O-])cc1 [Sulindac]
Method in brief: (§1)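 Following overnight incubation at 37 °C, lung cancer cell lines in 1536-well plates were pinned with five library-drug doses (not always all listed) in √10 steps on vehicle-anchored plates. The cells then spent 5 days without medium change before a combined fix, permeabilisation and Hoechst stain, 4× imaging and MetaXpress nuclear counts. Viability is the treated-to-vehicle ratio of nuclei, taken as the median across plates. Only plates with control CV below 25% and at least one doubling passed.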

[2] = compound: CN[C@@H]1C[C@H]2O[C@@](C)([C@@H]1OC)n1c3ccccc3c3c4c(c5c6ccccc6n2c5c31)C(=O)NC4 [Staurosporine]
Method in brief: as §1

[3] = compound: O=c1[nH]cc(F)c(=O)[nH]1 [5-Fluorouracil]
Method in brief: as §1

[4] = compound: CN[C@@H]1C[C@H]2O[C@@](C)([C@@H]1OC)n1c3ccccc3c3c4c(c5c6ccccc6n2c5c31)C(=O)NC4 [Staurosporine] + C[C@@H](Oc1cc(-c2cnn(C3CCNCC3)c2)cnc1N)c1c(Cl)ccc(F)c1Cl [Crizotinib] (partner 1 µM)
Method in brief: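 Lung cancer cell lines, seeded in 1536-well plates, were treated the following day by pin tool with a single drug or with five library-drug doses (not always all listed) in √10 steps on top of a fixed anchor-drug dose. Cells were fixed and nuclei stained in one step after 5 days, and nuclei were counted. Relative viability is the nuclei count for treated wells divided by that for vehicle wells, reported as medians of duplicate plates.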

Cell Line	relative viability ([1]; 0.08 µM)	relative viability ([1]; 0.253 µM)	relative viability ([1]; 0.8 µM)	relative viability ([1]; 2.53 µM)	relative viability ([1]; 8 µM)	relative viability ([2]; 0.005 µM)	relative viability ([2]; 0.01581 µM)	relative viability ([2]; 0.05 µM)	relative viability ([2]; 0.1581 µM)	relative viability ([2]; 0.5 µM)	relative viability ([3]; 0.02 µM)	relative viability ([3]; 0.2 µM)	relative viability ([3]; 0.6325 µM)	relative viability ([3]; 2 µM)	relative viability ([4]; first compound 0.005 µM)	relative viability ([4]; first compound 0.01581 µM)	relative viability ([4]; first compound 0.05 µM)	relative viability ([4]; first compound 0.1581 µM)	relative viability ([4]; first compound 0.5 µM)
201T	1.02	1	1	0.977	1.09	0.968	0.564	0.854	0.563	0.279	0.997	0.774	0.345	0.335	1.03	0.994	0.962	0.847	0.724
A549	1.13	1.04	0.754	1.05	1.17	0.716	0.377	0.256	0.0723	0.0395	1.08	0.854	0.338	0.136	0.369	0.19	0.0867	0.0411	0.0307
A-427	1.16	1.01	0.894	1	1.15	0.799	0.236	0.337	0.146	0.139	0.939	1.03	0.9	0.575	0.841	0.582	0.236	0.126	0.122
ABC-1	1.07	0.871	0.981	0.838	1.3	0.42	0.283	0.262	0.172	0.129	1.04	1.03	0.847	0.788	0.43	0.285	0.149	0.0998	0.0958
BEN	1.13	0.963	0.853	0.967	1.16	1.12	0.905	0.516	0.396	0.237	0.912	0.865	0.68	0.675	1.22	0.754	0.473	0.379	0.266
CAL-12T	1.05	1.09	0.864	0.946	1.12	0.34	0.223		0.15	0.144	1.08	1.03	0.659	0.448	0.16	0.0981	0.0843	0.113	0.0906
COR-L23	1.41	1.08	0.7	1.01	1.22	0.765	0.443	0.289	0.123	0.0808	1	0.995	0.476	0.278	0.369	0.303	0.118	0.0765	0.0558
COR-L 105	1.03	0.894	0.891	0.91	1.25	0.636	0.295	0.357	0.274	0.193	0.896	0.927	0.819	0.5	0.45	0.405		0.307	0.195
Calu-6	1.11	1.03	0.835	1.04	1.22	0.912	0.553	0.41	0.126	0.0704	1.07	1.04	0.872	0.508	0.809	0.337	0.163	0.0867	0.0627
ChaGo-K-1	1.09	1.02	0.863	1.03	1.12	1.03		0.871	0.307	0.228	1.01	0.964	0.766	0.612	1.14		0.819	0.256	0.203
EBC-1	1.12	1.14	0.705	1.09	1.1	0.623	0.395	0.239	0.2	0.12	1.03	0.979	0.934	0.619	0.183	0.205	0.163	0.105	0.115
EKVX	1.05	1.01	0.832	0.941	1.08	0.758	0.417	0.351	0.256	0.146	0.835	0.312		0.176	0.666	0.429	0.329	0.253	0.146
EMC-BAC-2	1.09	0.976	0.869	0.968	1.19	0.437	0.213	0.222	0.21	0.259	1.07	1.06	1.03	0.924	0.452	0.215	0.132	0.177	0.137
EPLC-272H	0.97	0.797	0.762	0.857	1.18	0.781	0.192	0.247	0.106	0.0993	0.732	0.706	0.397	0.262	0.864	0.559	0.459	0.155	0.124
H3255	0.943	0.968	0.884	1	1.1	0.596	0.432	0.363	0.267	0.145	0.901	1.09	0.89	0.712	0.591	0.495	0.25	0.174	0.0875
HARA	1.1	1.01	0.899	0.979	1.11	0.696	0.387	0.36	0.219	0.108	1.03	1.33	1	0.573	0.756	0.558	0.158	0.147	
HCC-15	1.14	1.07	0.843	0.986	1.13	0.92		0.636	0.137	0.119	1.04	1.11	0.711	0.413	0.795		0.527	0.307	0.267
